The text below walks through data of patent publication US8143263B2, “Therapeutic agents” (Astrazeneca AB, priority 2008, dated 2012).

pEC50: −log10 of the molar value.

For this experiment, the target named is T1, recombinant human pancreatic GLK (Homo sapiens, UniProt P35557).
T1 sequence (P35557 1-465): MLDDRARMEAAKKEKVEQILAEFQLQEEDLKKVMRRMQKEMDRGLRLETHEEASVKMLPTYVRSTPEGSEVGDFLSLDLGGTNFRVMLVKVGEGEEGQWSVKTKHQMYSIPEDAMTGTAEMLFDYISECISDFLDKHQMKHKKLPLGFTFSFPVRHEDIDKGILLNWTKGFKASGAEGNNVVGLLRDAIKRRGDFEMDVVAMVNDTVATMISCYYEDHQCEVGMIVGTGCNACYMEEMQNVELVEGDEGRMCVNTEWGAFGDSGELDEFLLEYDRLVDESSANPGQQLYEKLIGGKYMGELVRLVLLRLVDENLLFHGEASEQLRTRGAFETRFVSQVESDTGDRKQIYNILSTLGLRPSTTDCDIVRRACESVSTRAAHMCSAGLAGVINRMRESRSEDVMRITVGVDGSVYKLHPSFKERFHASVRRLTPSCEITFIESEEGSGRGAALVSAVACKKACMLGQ
Description: biochemical.
A word on the pEC50: it is the negative decadic logarithm of the EC50, by convention in mol/L. On to `COC[C@@H](C)OC[C@H](Oc1ncnc2c1cnn2-c1ncccc1Cl)C(=O)Nc1ccc(C)cn1` [Example 154, (2S)-2-(1-(3-chloropyridin-2-yl)-1H-pyrazolo[3,4-d]pyrimidin-4-yloxy)-3-((R)-1-methoxypropan-2-yloxy)-N-(5-methylpyridin-2-yl)propanamide], for which the pEC50 is 5.92.

Turning to `COC[C@@H](C)OC[C@H](Oc1ncnc2c1cnn2-c1ccccc1Cl)C(=O)Nc1cnc(C)cn1` [Example 155, (2S)-2-(1-(2-chlorophenyl)-1H-pyrazolo[3,4-d]pyrimidin-4-yloxy)-3-((R)-1-methoxypropan-2-yloxy)-N-(5-methylpyrazin-2-yl)propanamide], the pEC50 was 6.12.

For the molecule `Cc1cnc(NC(=O)[C@H](COC2CCC2)Oc2ncnc3c2cnn3-c2ccccc2Cl)cn1` [Example 156, (2S)-2-(1-(2-chlorophenyl)-1H-pyrazolo[3,4-d]pyrimidin-4-yloxy)-3-cyclobutoxy-N-(5-methylpyrazin-2-yl)propanamide], the pEC50 is 7.06.

As for `Cc1cnc(NC(=O)[C@H](COC2CCC2)Oc2ncnc3c2cnn3-c2ncccc2Cl)cn1` [Example 157, (2S)-2-(1-(3-chloropyridin-2-yl)-1H-pyrazolo[3,4-d]pyrimidin-4-yloxy)-3-cyclobutoxy-N-(5-methylpyrazin-2-yl)propanamide], the pEC50 is 6.85.

As for `Cc1ccc(NC(=O)[C@H](COC2CCC2)Oc2ncnc3c2cnn3-c2ncccc2Cl)nc1` [Example 158, (2S)-2-(1-(3-chloropyridin-2-yl)-1H-pyrazolo[3,4-d]pyrimidin-4-yloxy)-3-cyclobutoxy-N-(5-methylpyridin-2-yl)propanamide], the pEC50 is 6.82.

For the molecule `CC(=O)OCC[C@H](Oc1ncnc2c1cnn2-c1ncccc1Cl)C(=O)Nc1ccc(C)cn1` [Example 159, [(3S)-3-[1-(3-chloropyridin-2-yl)pyrazolo[4,5-e]pyrimidin-4-yl]oxy-4-[(5-methylpyridin-2-yl)amino]-4-oxobutyl]acetate], the pEC50 was 6.07.

`Cc1ccc(NC(=O)[C@H](COC(C)C)Oc2ncnc3c2cnn3-c2ccccc2C(F)(F)F)nc1` [Example 160, (2S)-3-isopropoxy-N-(5-methylpyridin-2-yl)-2-(1-(2-(trifluoromethyl)phenyl)-1H-pyrazolo[3,4-d]pyrimidin-4-yloxy)propanamide]: the pEC50 was 6.55.

`Cc1ccc(NC(=O)[C@H](CCS(C)(=O)=O)Oc2ncnc3c2cnn3-c2ccccc2Cl)nc1` [Example 161, -(2S)-2-(1-(2-chlorophenyl)-1H-pyrazolo[3,4-d]pyrimidin-4-yloxy)-N-(5-methylpyridin-2-yl)-4-(methylsulfonyl)butanamide]: the pEC50 is 6.21.

With `N#Cc1ccc(NC(=O)[C@H](COCCO)Oc2ncnc3c2cnn3-c2ncccc2Cl)nc1` [Example 162, (2S)-2-(1-(3-chloropyridin-2-yl)-1H-pyrazolo[3,4-d]pyrimidin-4-yloxy)-N-(5-cyanopyridin-2-yl)-3-(2-hydroxyethoxy)propanamide], the pEC50 is 5.82.

Turning to `O=C(Nc1ccc(Cl)cn1)[C@H](COCCO)Oc1ncnc2c1cnn2-c1ncccc1Cl` [Example 163, (2S)—N-(5-chloropyridin-2-yl)-2-(1-(3-chloropyridin-2-yl)-1H-pyrazolo[3,4-d]pyrimidin-4-yloxy)-3-(2-hydroxyethoxy)propanamide], the pEC50 is 6.24.

On to `Cc1ccc(NC(=O)[C@H](CCNS(C)(=O)=O)Oc2ncnc3c2cnn3-c2ccccc2Cl)nc1` [Example 164, (2S)-2-(1-(2-chlorophenyl)-1H-pyrazolo[3,4-d]pyrimidin-4-yloxy)-N-(5-methylpyridin-2-yl)-4-(methylsulfonamido)butanamide], for which the pEC50 is 6.03.

With `O=C(Nc1ccc(Cl)cn1)[C@H](CN1CC(O)C1)Oc1ncnc2c1cnn2-c1ncccc1Cl` [Example 165, (2S)—N-(5-chloropyridin-2-yl)-2-[1-(3-chloropyridin-2-yl)pyrazolo[4,5-e]pyrimidin-4-yl]oxy-3-(3-hydroxyazetidin-1-yl)propanamide], the pEC50 was 6.43.

Take `Cc1c(Cl)cccc1-n1ncc2c(O[C@@H](COCCO)C(=O)Nc3ccc(C#N)cn3)ncnc21` [Example 166, (2S)-2-[1-(3-chloro-2-methylphenyl)pyrazolo[4,5-e]pyrimidin-4-yl]oxy-N-(5-cyanopyridin-2-yl)-3-(2-hydroxyethoxy)propanamide]: the pEC50 was 5.54.

Take `Cc1ccc(NC(=O)[C@H](COCCO)Oc2ncnc3c2cnn3-c2cccc(Cl)c2C)nc1` [Example 167, (2S)-2-[1-(3-chloro-2-methylphenyl)pyrazolo[4,5-e]pyrimidin-4-yl]oxy-3-(2-hydroxyethoxy)-N-(5-methylpyridin-2-yl)propanamide]: the pEC50 was 5.96.

In the case of `Cc1c(F)cccc1-n1ncc2c(O[C@@H](COCCO)C(=O)Nc3ccc(C#N)cn3)ncnc21` [Example 168, (2S)—N-(5-cyanopyridin-2-yl)-2-[1-(3-fluoro-2-methylphenyl)pyrazolo[4,5-e]pyrimidin-4-yl]oxy-3-(2-hydroxyethoxy)propanamide], the pEC50 is 5.41.

Take `Cc1c(F)cccc1-n1ncc2c(O[C@@H](COCCO)C(=O)Nc3ccc(Cl)cn3)ncnc21` [Example 170, (2S)—N-(5-chloropyridin-2-yl)-2-[1-(3-fluoro-2-methylphenyl)pyrazolo[4,5-e]pyrimidin-4-yl]oxy-3-(2-hydroxyethoxy)propanamide]: the pEC50 was 5.82.

Turning to `O=C(Nc1ccc(Cl)cn1)[C@H](COCCO)Oc1ncnc2c1cnn2-c1ccccc1Cl` [Example 171, (2S)-2-[1-(2-chlorophenyl)pyrazolo[4,5-e]pyrimidin-4-yl]oxy-N-(5-chloropyridin-2-yl)-3-(2-hydroxyethoxy)propanamide], the negative-log EC50 (pEC50) was 6.48.

Turning to `N#Cc1ccc(NC(=O)[C@H](COCCO)Oc2ncnc3c2cnn3-c2ccccc2Cl)nc1` [Example 172, (2S)-2-[1-(2-chlorophenyl)pyrazolo[4,5-e]pyrimidin-4-yl]oxy-N-(5-cyanopyridin-2-yl)-3-(2-hydroxyethoxy)propanamide], the pEC50 is 6.09.

Take `Cc1c(Cl)cccc1-n1ncc2c(O[C@@H](COCCO)C(=O)Nc3ccc(Cl)cn3)ncnc21` [Example 173, (2S)-2-[1-(3-chloro-2-methylphenyl)pyrazolo[4,5-e]pyrimidin-4-yl]oxy-N-(5-chloropyridin-2-yl)-3-(2-hydroxyethoxy)propanamide]: the pEC50 is 6.04.

On to `N#Cc1cccc(Cl)c1-n1ncc2c(O[C@@H](COCCO)C(=O)Nc3ccc(Cl)cn3)ncnc21` [Example 174, (2S)-2-(1-(2-chloro-6-cyanophenyl)-1H-pyrazolo[3,4-d]pyrimidin-4-yloxy)-N-(5-chloropyridin-2-yl)-3-(2-hydroxyethoxy)propanamide], for which the pEC50 was 6.64.

Turning to `Cc1ccc(NC(=O)[C@H](CO[C@H](C)CO)Oc2ncnc3c2cnn3-c2c(Cl)cccc2C#N)nc1` [Example 175, (2S)-2-(1-(2-chloro-6-cyanophenyl)-1H-pyrazolo[3,4-d]pyrimidin-4-yloxy)-3-((R)-1-hydroxypropan-2-yloxy)-N-(5-methylpyridin-2-yl)propanamide], the pEC50 is 6.57.

As for `Cc1ccc(NC(=O)[C@H](COCCO)Oc2ncnc3c2cnn3-c2c(Cl)cccc2C#N)nc1` [Example 176, (2S)-2-(1-(2-chloro-6-cyanophenyl)-1H-pyrazolo[3,4-d]pyrimidin-4-yloxy)-3-(2-hydroxyethoxy)-N-(5-methylpyridin-2-yl)propanamide], the pEC50 was 6.42.

With `CC(C)OC[C@H](Oc1ncnc2c1cnn2-c1ncccc1Cl)C(=O)Nc1ccc(S(C)(=O)=O)cn1` [Example 177, (2S)-2-(1-(3-chloropyridin-2-yl)-1H-pyrazolo[3,4-d]pyrimidin-4-yloxy)-3-isopropoxy-N-(5-(methylsulfonyl)pyridin-2-yl)propanamide], the pEC50 was 5.82.

For `CC(C)OC[C@H](Oc1ncnc2c1cnn2-c1ncccc1Cl)C(=O)Nc1ccc(C(=O)N(C)C)cn1` [Example 178, 6-((2S)-2-(1-(3-chloropyridin-2-yl)-1H-pyrazolo[3,4-d]pyrimidin-4-yloxy)-3-isopropoxypropanamido)-N,N-dimethylnicotinamide], the pEC50 is 5.37.

Consider `Cc1ccc(C)c(-n2ncc3c(O[C@@H](COCCO)C(=O)Nc4ccc(Cl)cn4)ncnc32)c1` [Example 179, (2S)—N-(5-chloropyridin-2-yl)-2-(1-(2,5-dimethylphenyl)-1H-pyrazolo[3,4-d]pyrimidin-4-yloxy)-3-(2-hydroxyethoxy)propanamide], for which the pEC50 was 6.21.

For the molecule `Cc1ccc(F)cc1-n1ncc2c(O[C@@H](COCCO)C(=O)Nc3ccc(Cl)cn3)ncnc21` [Example 180, (2S)—N-(5-chloropyridin-2-yl)-2-(1-(5-fluoro-2-methylphenyl)-1H-pyrazolo[3,4-d]pyrimidin-4-yloxy)-3-(2-hydroxyethoxy)propanamide], the negative-log EC50 (pEC50) is 6.03.

On to `Cc1ccc(NC(=O)[C@H](COCCO)Oc2ncnc3c2cnn3Cc2ccccc2)nc1` [Example 181, (S)-2-(1-benzyl-1H-pyrazolo[3,4-d]pyrimidin-4-yloxy)-3-(2-hydroxyethoxy)-N-(5-methylpyridin-2-yl)propanamide], for which the pEC50 is 5.48.

For `Cc1ccc(F)cc1-n1ncc2c(O[C@@H](COCCO)C(=O)Nc3ccc(C#N)cn3)ncnc21` [Example 182, (2S)—N-(5-cyanopyridin-2-yl)-2-(1-(5-fluoro-2-methylphenyl)-1H-pyrazolo[3,4-d]pyrimidin-4-yloxy)-3-(2-hydroxyethoxy)propanamide], the pEC50 was 5.52.
